Results published in US7537786B2, “Complex of drug-carbon nanohorn and a process for producing the complex” (NEC Corporation, priority 2005, dated 2009).

Tests used:
NCI-H460 cells = assay: WST-1 assay for cancer cell viability; type: cell-based, human; details: WST-1, incubation 46 and 72 hours
Experimental: The effect of CDDP released from CNHox was examined using the WST-1 assay. The CDDP-CNHox powder was added to human derived lung cancer cells NCI-H460. CDDP is a drug which has a effect on human lung cancer. These cells were maintained in RPMI-1640 medium containing 5% FBS at 37° C. in a humidified atmosphere with CO2 and air. For these cells, CDDP-CNHox or CDDP or CNHox was added respectively, and after the addition, each sample was examined. NCI-H460 cells were seeded at 4,000 cells/well and were cultured for 43 hours. Meanwhile, the cells were cultured for 67 hours when seeded at 2,500 cells/well (no addition of CDDP-CNHox or CDDP). And then it was confirmed that the NCI-H460 cells were extinct by drug addition. The amount of the extinct NCI-H460 cells was estimated by observing the decrease in the emission intensity to indicate the absorbency of formazan (with blue dye) showing the living of cells. And also, the NCI-H460 cells were directly observed using the optical microscope.

MC3T3-E1 cells = assay: ALP (alkaline phosphatase) activity assay; type: cell-based, mouse; details: MC3T3-E1, 10 days, differentiation-inducing medium with rhBMP-4
Experimental: Mouse osteoblastic cell (MC3T3-E1) lines were generously provided by Dr. Imamura (Cancer Institute, Japanese Foundation For Cancer Research). MC3T3-E1 cells were maintained in α-minimum essential medium (α-MEM) supplied with 5% FBS, […] in continuous culture at 37° C. in a humidified atmosphere of 5% CO2 and 95% air, and these cells were passaged every 3-4 days.
MC3T3-E1 cells were plated at 26,000 cells/cm^2 in 24 well plates and were grown until confluent. Next, the culture medium was exchanged with differentiation-inducing medium which consisted of α-MEM, 5% FBS, 100 U/ml penicillin, 100 μg/ml streptomycin, 50 μM ascorbic acid, 10 mM β-glycerophosphate and 20 ng/ml rhBMP-4. […]
For ALP activity assay, the medium was removed, and the cells were washed 3 times with TBS (20 mM Tris pH7.4, 150 mM NaCl), then harvested into 250 μl of TBS (contaning 0.2% Triton X-100) by scraping them on ice, and sonicated on ice for 5 min. […] The supernatant was mixed with p-nitro phosphate according to the manufacture's protocol, and the amount of p-nitrophenol released in 10 min was assessed by spectrophotometry (405 nm) with model 550 microplate-reader (Bio-Rad). Protein concentration of supernatant was assessed with protein quantitative assay kit (DC Protein Assay Kit) by the Lowry method. […]

Structure (SMILES)	viability rate of NCI-H460 cells (NCI-H460 cells)	concentration at which ALP activity was increased (MC3T3-E1 cells)
[NH2][Pt]([NH2])([Cl])[Cl] [CDDP, cisplatin]	decreased dose-dependently	
C[C@@H]1C[C@H]2[C@@H]3CCC4=CC(=O)C=C[C@]4(C)[C@@]3(F)[C@@H](O)C[C@]2(C)[C@@]1(O)C(=O)CO [DEX, Dexamethasone]		no less than 0.05 μM
